Assay results as given in article PMC8180025, “Antibacterial, antifungal and antioxidant activities of whole plant chemical constituents of Rumex abyssinicus” (BMC Complementary Medicine and Therapies, 2021).
In brackets after ≈: the same amount, converted by molar mass. Several values for one entry are separate records, joined by “and”; a condition that tells them apart may be missing. Equal values may be shown once. Marks after values point to notes of the source that are not given here.

Legend:
[1] = DPPH free radical scavenging assay; type: biochemical; settings: mean ± SD, triplicate
Procedure: The free radical scavenging activity of extracts and compounds was evaluated according to described methods. The EC50 (μg/ml), which is the amount of sample necessary to inhibit by 50% the absorbance of free radical DPPH was calculated. Vitamin C was used as a standard control. All the analyses were carried out in triplicate.

[2] = test system: Candida albicans ATCC10231; assay: Broth microdilution MIC/MMC; settings: for MMC/MIC / MMC: C. albicans; for MMC: sub-culturing after broth microdilution; for MIC: Candida albicans, ATCC10231
[3] = test system: Cryptococcus neoformans H99; assay: Broth microdilution MIC/MMC; settings: for MMC/MIC / MMC: C. neoformans; for MMC: sub-culturing after broth microdilution; for MIC: Cryptococcus neoformans, H99
[4] = test system: Shigella flexneri SDINT; assay: Broth microdilution MIC/MMC; settings: for MMC/MIC / MMC: S. flexneri; for MMC: sub-culturing after broth microdilution; for MIC: Shigella flexneri
[5] = test system: Staphylococcus aureus ATCC25923; assay: Broth microdilution MIC/MMC; settings: for MMC/MIC / MMC: S. aureus; for MMC: sub-culturing after broth microdilution; for MIC: Staphylococcus aureus, ATCC25923
[6] = test system: methicillin resistant S. aureus MRSA03; assay: Broth microdilution MIC/MMC; settings: for MMC/MIC / MMC: MRSA03; for MMC: sub-culturing after broth microdilution; for MIC: Staphylococcus aureus
[7] = Gallic acid equivalent antioxidant capacity (GEAC) assay; type: biochemical; settings: laccase/ABTS, 420 nm after 240 s; mean ± SD
Procedure: The GEAC test was done as previously described with slight modifications. In a quartz cuvette, to 950 μL acetate buffer (pH =5.0, 100 mM), the following were added: 20 μL laccase (1 mM stock solution), 20 μL test sample, 10 μL ABTS (2,2′-azinobis(3-ethylbenzothiazoline-6-sulfonic acid) (74 mM stock solution). The purification of laccase from Sclerotinia sclerotiorum was done according to the protocol described. The sample concentrations in the assay mixture were 800, 400, 200, 100, 10 μg/mL for the extracts and 200, 100, 50, 25, 12.5, 6.25, 3.125, 1.56 μg/mL for the isolated compounds. The content of the generated ABTS^●+ radical was measured at 420 nm after 240 s reaction time and was converted to gallic acid equivalents by the use of a calibration curve (Pearson’s correlation coefficient: r = 0.997) constructed with 0, 4, 10, 14, 28, 56, 84 μM gallic acid standards rather than Trolox. Experiments were done in triplicate.

[8] = test system: methicillin sensitive S. aureus MSSA01; assay: Broth microdilution MIC/MMC; settings: for MMC/MIC / MMC: MSSA01; for MMC: sub-culturing after broth microdilution; for MIC: Staphylococcus aureus
[9] = test system: Pseudomonas aeruginosa ATCC27853; assay: Broth microdilution MIC/MMC; settings: for MMC/MIC / MMC: P. aeruginosa; for MMC: sub-culturing after broth microdilution; for MIC: Pseudomonas aeruginosa, ATCC27853

Structure (SMILES)	DPPH free radical scavenging activity (EC50) [1]	MMC/MIC [2]	MMC [2]	MIC [2]	MMC/MIC [3]	MMC [3]	MIC [3]	MMC/MIC [4]	MMC [4]	MIC [4]	MMC/MIC [5]	MMC [5]	MIC [5]	MMC [6]	MIC [6]	MMC [8]	MIC [8]	MMC/MIC [9]	MMC [9]	MIC [9]	also measured
O=C1O[C@H]([C@@H](O)CO)C(O)=C1O [Vitamin C, reference compound]	1.81 ± 0.19^h μg/mL	–	–	–	–	–	–	–	–	–	–	–	–	–	–	–	–	–	–	–	–
OC(Cn1cncn1)(Cn1cncn1)c1ccc(F)cc1F [fluconazole, reference compound]	–	1	1 µg/mL	1 µg/mL (≈ 3.27 µM)	1	2 µg/mL	2 µg/mL (≈ 6.53 µM)	–	–	–	–	–	–	–	–	–	–	–	–	–	–
O=C1c2cc(O)cc(O)c2C(=O)c2c(O)cc(CO)cc21 [Compound 5, 6-hydroxyemodin (Citreorosein)]	9.88 ± 0.62^f μg/mL	2	32 µg/mL	16 µg/mL (≈ 55.9 µM)	2	32 µg/mL	16 µg/mL (≈ 55.9 µM)	1	32 µg/mL	32 µg/mL (≈ 112 µM)	1	32 µg/mL	32 µg/mL (≈ 112 µM)	256 µg/mL	128 µg/mL (≈ 447 µM)	256 µg/mL	128 µg/mL (≈ 447 µM)	2	64 µg/mL	32 µg/mL (≈ 112 µM)	MMC/MIC [6]: 2; Gallic acid equivalent antioxidant capacity (GEAC) [7]: 81.09 ± 0.93 μg/mL and 81.09 ± 0.93^e μg/mL; MMC/MIC [8]: 2
CC(C)[C@@H](C)C=C[C@@H](C)[C@H]1CC[C@H]2[C@]3(O)C=CC4(O)CC(O)CC[C@]4(C)[C@H]3CC[C@]12C (stereo partly drawn) [Compound 3, Ergosta-6,22-diene-3,5,8-triol]	–	–	>256 µg/mL	128 µg/mL (≈ 297 µM)	2	128 µg/mL	64 µg/mL (≈ 149 µM)	–	>256 µg/mL	128 µg/mL (≈ 297 µM)	–	>256 µg/mL	256 µg/mL (≈ 594 µM)	>256 µg/mL	> 256 µg/mL	>256 µg/mL	> 256 µg/mL	2	256 µg/mL	128 µg/mL (≈ 297 µM)	–
O=C(O)c1cn(C2CC2)c2cc(N3CCNCC3)c(F)cc2c1=O [ciprofloxacin, Ciprofloxacin, reference compound]	–	–	–	–	–	–	–	1	8 µg/mL	8 µg/mL (≈ 24.1 µM)	1	0.5 µg/mL	0.5 µg/mL (≈ 1.51 µM)	4 µg/mL	4 µg/mL (≈ 12.1 µM)	4 µg/mL	4 µg/mL (≈ 12.1 µM)	1	0.5 µg/mL	0.5 µg/mL (≈ 1.51 µM)	MMC/MIC [6]: 1; MMC/MIC [8]: 1
Cc1cc(O)c2c(c1)C(=O)c1cccc(O)c1C2=O [Compound 1, Chrysophanol]	4.52 ± 0.36^d μg/mL	1	64 µg/mL	64 µg/mL (≈ 252 µM)	1	32 µg/mL	32 µg/mL (≈ 126 µM)	1	32 µg/mL	32 µg/mL (≈ 126 µM)	2	64 µg/mL	32 µg/mL (≈ 126 µM)	128 µg/mL	64 µg/mL (≈ 252 µM)	64 µg/mL	64 µg/mL (≈ 252 µM)	2	128 µg/mL	64 µg/mL (≈ 252 µM)	MMC/MIC [6]: 2; Gallic acid equivalent antioxidant capacity (GEAC) [7]: 104.87 ± 1.43^d μg/mL; MMC/MIC [8]: 1
